# Laboratory results reported in patent US3962282A, “Juvenile hormone mimics” (priority 1974, dated 1976).
# Where “and” joins values, the source holds several entries; their conditions need not be identical. Equal values may be shown once.
# Legend:
# Mexican bean beetle = assay: topical application to Mexican bean beetle, fourth larval stage, maturation inhibition; assay type: in vivo; settings: rating scale 0-3
# Procedure, shortened: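 Compounds applied topically, 1 μL acetone solution at 10%, 1% or 0.5%, to ten specimens per insect per concentration, alongside acetone and untreated controls; scored after about 8–10 days. Juvenile/adult characteristics rated 0–3 (Tenebrio 0–4), ≥2 meaning unable to reproduce; unreported specimens died during metamorphosis.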
# [1] = test system: Aedes aegypti mosquito larvae; assay: mosquito larvae in aqueous solutions, adult emergence; assay type: in vivo; settings: for number of adults, Jar 1 Dead / number of adults, Jar 1 Living / number of adults, Jar 2 Dead / number of adults, Jar 2 Living: 13 days
# Method: Two compounds, 7,8-epoxy-4-ethyl-8-methyl-1-(3,4-methylenedioxyphenyl)-3-decene and 2,6-diemthyl-9-(3,4-methylenedioxyphenyl)-2,6-nonadiene, were tested against Aedes aegypti mosquito larvae in aqueous solutions at concentrations of 10, 5, 2.5. 1.25 and 0.625 ppm. each. Ninety milliliters of each solution were placed in a pint jar and 30 five-day-old mosquito larvae were added to each jar. Two tests were run at each concentration and control tests employing only solvent with no compound were also run. Food was added to each jar, the jars were covered with cloths, and maintained at 29°C. until adults emerged in the control jars. The number of adults in the test jars was determined.
# German cockroach nymphs = assay: topical application to 50-day-old German cockroach nymphs; assay type: in vivo, Blattella germanica
# Excerpt: In another test, the nonadiene was applied topically to 50-day-old German cockroach nymphs. The compound was applied in acetone as a […], or 0.5 percent solution. Acetone controls and nontreated controls were also run. The roaches were then maintained in the laboratory until the controls reproduced. […] The 1 percent and 0.5 percent treatments did reproduce.
# [2] = test system: Housefly (Musca domestica); assay: housefly rearing diet test, percent adult emergence; assay type: in vivo
# Method: Test compounds were mixed with the rearing diet of houseflys at various levels. The prepared diet was then placed in an 8 oz. drinking cup. Three cups were prepared for each treatment level and three control cups. Housefly eggs (Musca domestica) were placed in each cup and they were maintained at 28°C. for 1 week. Fifty pupae were then removed from each cup and placed in a petri dish. After the control pupae had emerged into adults, the percent emergence in each dish was recorded. The test compounds used were 7,8-epoxy-4-ethyl-8-methyl-1-(3,4-methylenedioxyphenyl)-3-decene, 4,8-dimetyl-1-(3,4-methylenedioxyphenyl)-2,6-nonadiene and 2,6-dichloro-2,6-dimethyl-9-(3,4-methylenedioxyphenyl)nonane.
# [3] = test system: Melon aphids (Aphis gossypi); assay: melon aphids on dipped squash plants; assay type: in vivo; settings: 200 ppm, six days
# Method: Young squash plants were dipped for 30 seconds in aqueous solutions containing 200, 100, and 50 ppm. of 2.6-dimethyl-9-(3,4-methylenedioxyphenyl)-2,6-nonadiene. Three plants were treated at each concentration and three plants were used as controls. After the plants had dried, ten adult aphids (Aphis gossypi) were placed on each plant and allowed to feed. The plants were maintained under laboratory conditions. Twenty-four hours after they were placed on the plants, all adults were removed, leaving young nymphs. Six days after treatment, the total number of aphids on each plant was determined.
# [4] = test system: Mexican bean beetle larvae; assay: soil drench of bean plants with Mexican bean beetle larvae; assay type: in vivo; settings: scale 0-3
# Method: Bean plants of the Bountiful variety were placed in soil and allowed to grow with 10 Mexican bean beetle larvae on each cluster. To the soil around each plant was added 200 ml. of a solution containing 2,6-dimethyl-9-(3,4-methylenedioxyphenyl)-2,6-nonadiene. The soil was then covered with aluminum foil to prevent the larvae from coming in contact with the compound. Three different concentrations of compound were applied. These were prepared from a 48 percent emulsifiable concentrate by diluting 10 ml., 4 ml., and 2 ml. of the concentrate to a volume of 200 ml. with water. A control using 200 ml. of just water and another using no drench were also run. The results are tabulated below using the same rating system as described earlier for the primary screening test agains Mexican bean beetle.
# [5] = test system: Mexican bean beetle larvae; assay: spray of caged flats of bean plants with Mexican bean beetle larvae; assay type: in vivo
# Method: Six-foot by 12-foot caged flats were planted with Bountiful variety bean plants in two 12-foot rows. Into each cage were introduced 100 Mexican bean beetle larvae. Each cage was then sprayed with 500 ml. of a solution prepared by diluting a 48 percent emulsifiable concentrate of 2,6-dimethyl-9-(3,4-methylenedioxyphenyl)-2,6-nonadiene to the desired concentration. Two flats were treated at each concentration and two were used as controls.
structure (smiles),measurement,setting,value
"CC(C)=CCCC(C)=CCCc1ccc2c(c1)OCO2 [2,6-dimethyl-9-(3,4-methylenedioxyphenyl)-2,6-nonadiene]",number of specimens in rating 3,Mexican bean beetle; 0.5%,9 specimens
same,number of specimens in rating 3,Mexican bean beetle; 1%,10 specimens
same,number of specimens in rating 3,Mexican bean beetle; 10%,1 specimens
same,"number of adults, Jar 1 Dead",[1]; 0.625 ppm,21
same,"number of adults, Jar 1 Living",[1]; 0.625 ppm,1
same,"number of adults, Jar 2 Dead",[1]; 0.625 ppm,21
same,"number of adults, Jar 2 Living",[1]; 0.625 ppm,0
same,"number of adults, Jar 1 Dead",[1]; 1.25 ppm,1
same,"number of adults, Jar 1 Living",[1]; 1.25 ppm,3
same,"number of adults, Jar 2 Dead",[1]; 1.25 ppm,10
same,"number of adults, Jar 2 Living",[1]; 1.25 ppm,1
same,"number of adults, Jar 1 Dead",[1]; 2.5 ppm,0
same,"number of adults, Jar 1 Living",[1]; 2.5 ppm,0
same,"number of adults, Jar 2 Dead",[1]; 2.5 ppm,1
same,"number of adults, Jar 2 Living",[1]; 2.5 ppm,0
same,"number of adults, Jar 1 Dead",[1]; 5 ppm,0
same,"number of adults, Jar 1 Living",[1]; 5 ppm,0
same,"number of adults, Jar 2 Dead",[1]; 5 ppm,0
same,"number of adults, Jar 2 Living",[1]; 5 ppm,0
same,"number of adults, Jar 1 Dead",[1]; 10 ppm,0
same,"number of adults, Jar 1 Living",[1]; 10 ppm,0
same,"number of adults, Jar 2 Dead",[1]; 10 ppm,0
same,"number of adults, Jar 2 Living",[1]; 10 ppm,0
same,control,[1]; at concentrations as low as 2.5 ppm,100%
same,live adults in the jars,"[1]; nonadiene at 10, 5, and 2.5 ppm, decene at any concentration",never any live adults
same,reproduction,German cockroach nymphs; 0.5 percent,did reproduce
same,reproduction,German cockroach nymphs; 1 percent,did reproduce
same,reproduction,German cockroach nymphs; 10 percent solution,did not reproduce
same,wing formation,German cockroach nymphs; 10 percent solution,normal wing formation
same,"percent adult emergence, Cup 1",[2]; 100 ppm in diet,90%
same,"percent adult emergence, Cup 2",[2]; 100 ppm in diet,30%
same,"percent adult emergence, Cup 3",[2]; 100 ppm in diet,10%
same,control,[2]; 500 ppm,100%
same,"percent adult emergence, Cup 1",[2]; 500 ppm in diet,0%
same,"percent adult emergence, Cup 2",[2]; 500 ppm in diet,0%
same,"percent adult emergence, Cup 3",[2]; 500 ppm in diet,0%
same,"number of aphids per plant, Total",[3],15 and 13 and 22
same,number in rating 0,[4]; 2 ml. concentrate/200 ml.,8
same,number in rating 3,[4]; 2 ml. concentrate/200 ml.,2
same,number in rating 0,[4]; 4 ml. concentrate/200 ml.,2
same,number in rating 3,[4]; 4 ml. concentrate/200 ml.,8
same,number in rating 0,[4]; 10 ml. concentrate/200 ml.,1
same,number in rating 3,[4]; 10 ml. concentrate/200 ml.,9
same,% Control,[5]; 0.1 lbs./acre,13%
same,% Control,[5]; 0.2 lbs./acre,71.5%
same,% Control,[5]; 0.4 lbs./acre,75.5%
same,% Control,[5]; 0.8 lbs./acre,98.5%
